# Assays:
# MDA-MB-231 cells = assay: Matrigel invasion assay; assay type: cell-based; details: MDA-MB-231 cells pretreated with inhibitors for 24 h; control 69.07 ± 5.26%
# Procedure: Figure 5 Effects of compounds 1–3 and JG26 on cancer cell invasion. MDA-MB-231 cells were pretreated with inhibitors for 24 h prior to the assay. Boxplot of invaded cells in %. Results are obtained from three independent experiments with counting of five randomly chosen viewing fields. One-way ANOVA was performed to determine statistical significance with * p < 0.05 and *** p < 0.001. […]
# Thincerts of […] pore size, translucent (Greiner BioOne) were transferred into 24-well plates. Each insert was loaded with 75 µL Matrigel (BD Biosciences), 1:1 diluted with serum-free medium DMEM.
# After 1 hour, thincerts were turned upside down and 25000 MDA-MB-231 cells, pretreated with vehicle (DMSO) or 20 µM inhibitors (JG26 and compounds 1-3 in DMSO) for 24 hours in DMEM/0.5 % FCS were seeded on the lower side and incubated for 3-4 hours so that cell can adhere to the membrane. To induce cell invasion, DMEM/20% FCS was applied to the upper chamber in order to […]
# form a concentration gradient. After 18 hours, cells were fixed with 3.7 % paraformaldehyde and stained with 4’,6-Diamidin-2-phenylindol (DAPI) to detect cell nuclei. Quantification of cell invasion was performed using a confocal microscope by stacked imaging. Cell nuclei present in the upper and the lower chamber were counted in 5 randomly chosen viewing fields and the amount of invasion was calculated in percent as the ratio between invaded cells/non-invaded cells x 100. Experiments were repeated 3 times, counting 5 random viewing fields per well, respectively.
# Protein extraction and Western Blot analysis
# After 48 h, total protein extraction was performed by detaching the cells with a cell scraper. Cells were washed with PBS, resuspended in 50 μL RIPA (50 mM HEPES pH 7.4; 150 mM NaCl; 1% (v/v) NP-40; 0.5% (w/v) Natriumdeoxycholate; 0.1% (w/v) SDS; 10 mM Phenantrolin; 10 mM EDTA; PierceTM Protease Inhibitor Mini Tablets, EDTA-free, Thermo Scientific; PierceTM Phosphatase Inhibitor Mini Tablets, Thermo Scientific) and incubated for 30 min on ice. […]
# 2% (w/v) SDS; 10% (w/v) Glycerol; 5% (v/v) ß-Mercaptoethanol; 0.01% (w/v) Bromphenol-Blue) for 5 min. The proteins were separated by 10% SDS-PAGE and subsequently transferred on a nitrocellulose membrane (GE Healthcare). The membrane was then blocked with 5% (w/v) milk powder (MP) in TBST (50 mM Tris, pH 7.5; 150 mM NaCl; 0.1% (w/v) Tween-20) for 1 h and probed with the following primary antibodies: anti-beta Tubulin (NB600-936, Novus Biological, 1:2000), anti- […]
# Cell Signaling, 1:2000) and anti-pAkt (4060, Cell Signaling, 1:2000) at 4°C overnight. After washing the 3x with TBST, the membrane was incubated with horseradish peroxidase-conjugated secondary antibodies for 1 h (abcam, 1:5000) followed by a repeated washing step. […]
# MMP-9 = target: T1, MMP-9 (Homo sapiens, UniProt P14780); assay: MMP-9 fluorometric inhibition assay; assay type: biochemical; details: mean of three independent experiments in duplicate, read-out: In vitro inhibitory activity IC50 on MMP-9
# T1 construct: purchased Calbiochem (Merck-Millipore)
# T1 sequence (P14780 107-707 limits assumed, species assumed): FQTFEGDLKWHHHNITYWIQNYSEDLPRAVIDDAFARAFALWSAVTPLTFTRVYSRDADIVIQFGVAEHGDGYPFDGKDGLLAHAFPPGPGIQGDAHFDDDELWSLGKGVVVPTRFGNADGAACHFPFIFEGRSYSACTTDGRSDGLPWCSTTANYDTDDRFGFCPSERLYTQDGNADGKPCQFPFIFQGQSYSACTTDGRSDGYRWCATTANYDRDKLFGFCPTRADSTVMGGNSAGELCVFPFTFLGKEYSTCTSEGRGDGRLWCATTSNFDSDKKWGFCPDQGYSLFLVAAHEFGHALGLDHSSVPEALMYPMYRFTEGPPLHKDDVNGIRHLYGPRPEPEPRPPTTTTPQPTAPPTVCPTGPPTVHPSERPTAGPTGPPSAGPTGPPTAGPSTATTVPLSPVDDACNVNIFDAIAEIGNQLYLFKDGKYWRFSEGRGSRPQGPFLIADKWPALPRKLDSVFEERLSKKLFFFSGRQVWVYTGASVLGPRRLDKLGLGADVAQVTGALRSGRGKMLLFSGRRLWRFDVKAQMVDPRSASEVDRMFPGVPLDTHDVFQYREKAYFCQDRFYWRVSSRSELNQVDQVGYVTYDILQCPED
# Procedure: The newly synthesized bivalent derivatives 1–3 were then tested in vitro on human recombinant ADAM8 in comparison with JG26 by a fluorometric assay. The inhibitory activity against a panel of MMPs and ADAM10/17 was determined as well to assess their selectivity profile. […]
# VI. Biological Activity on Isolated Enzymes
# MMP and ADAM10 inhibition assays.
# Recombinant human MMP-14 catalytic domain was a kind gift of Prof. Gillian Murphy (Department of […]
# Oncology, University of Cambridge, UK). Pro-MMP-1, pro-MMP-2, and pro-MMP-9, were purchased […]
# from Calbiochem (Merck-Millipore). Pro-MMP-12 and ADAM10 were purchased from R&D Systems.
# Proenzymes were activated immediately prior to use with p-aminophenylmercuric acetate (APMA 2 […]
# mM for 1 h at 37°C for MMP-2 and MMP-1, 1 mM for 1 h at 37°C for MMP-9). Pro-MMP-12 was […]
# auto activated by incubating in the fluorometric assay buffer (FAB: Tris 50 mM, pH = 7.5, NaCl 150 […]
# mM, CaCl2 10 mM, Brij 35 0.05% and DMSO 1%) for 30 h at 37°C. For assay measurements, each […]
# inhibitor stock solution (DMSO, 10 mM) was further diluted in FAB at seven different concentrations.
# Activated enzyme (final concentration 0.56 nM for MMP-2, 1.3 nM for MMP-9, 1.0 nM for MMP- […]
# 14cd, 2.0 nM for MMP-1, 2.3 nM for MMP-12 and 20 nM for ADAM10) and inhibitor solutions were […]
# incubated in the assay buffer for 3 h at 25 °C. ADAM10 was incubated for 1 h at 37°C in a different […]
# buffer at pH 9 (Tris 25 mM, ZnCl2 25 µM, Brij-35 0.005 %). After the addition of 200 µM solution of […]
# the fluorogenic substrate Mca-Lys-Pro-Leu-Gly-Leu-Dap(Dnp)-Ala-Arg-NH2 (Bachem) for all the […]
# enzymes in DMSO (final concentration 2 µM for all enzymes, 10 µM for ADAM10), the hydrolysis […]
# was monitored every 10 sec. for 15 min. recording the increase in fluorescence (λ ex = 325 nm, λ em = […]
# 400 nm) using a Molecular Devices SpectraMax Gemini XPS plate reader. The assays were performed […]
# in triplicate in a total volume of 200 μL per well in 96-well microtitre plates (Corning, black, NBS).
# Control wells lack inhibitor. The MMP inhibition activity was expressed in relative fluorescent units […]
# (RFU). Percent of inhibition was calculated from control reactions without the inhibitor. IC50 was determined using the formula: v i/v o = 1/(1 + [I]/ IC50), where v i is the initial velocity of substrate cleavage in the presence of the inhibitor at concentration [I] and v o is the initial velocity in the absence of the inhibitor. Results were analyzed using SoftMax Pro software (version 5.4.3, Molecular Devices, Sunnyvale, CA) and Prism Software version 5.0 (GraphPad Software, Inc., La Jolla, CA, USA). […]
Compound,Invaded cells (MDA-MB-231 cells),IC50 (MMP-9)
O=C(CCCNC(=O)c1cccc(C(=O)NCCCC(=O)NCCC[C@@H](NS(=O)(=O)c2ccc(OCc3cc(Br)cc(Br)c3)cc2)C(=O)NO)c1)NCCC[C@@H](NS(=O)(=O)c1ccc(OCc2cc(Br)cc(Br)c2)cc1)C(=O)NO [Compound 1],57.25 ± 7.24%,3.32 µM
O=C(NCCC[C@@H](NS(=O)(=O)c1ccc(OCc2cc(Br)cc(Br)c2)cc1)C(=O)NO)c1cccc(C(=O)NCCC[C@@H](NS(=O)(=O)c2ccc(OCc3cc(Br)cc(Br)c3)cc2)C(=O)NO)c1 [Compound 2],50.8 ± 11.4%,8.8 µM
O=C(NCCC[C@@H](NS(=O)(=O)c1ccc(OCc2cc(Br)cc(Br)c2)cc1)C(=O)NO)NCCC[C@@H](NS(=O)(=O)c1ccc(OCc2cc(Br)cc(Br)c2)cc1)C(=O)NO [Compound 3],52.9 ± 9.14%,13.5 µM
"NC(=O)NCCC[C@@H](NS(=O)(=O)c1ccc(OCc2cc(Br)cc(Br)c2)cc1)C(=O)NO [JG26, reference compound]",59.87 ± 12.27%,1.63 µM
